Measurements published in EP0451130A2, “Use of amiloride and other pyrazine derivatives for preventing or treating ocular neovascularization” (priority 1990, dated 1991).

What was measured:
human uPA = molecular target: T1, human uPA (Homo sapiens, UniProt P00749); assay: in vitro uPA chromogenic substrate assay (glutaryl-glycyl-arginyl-p-nitroanilide, absorbance 405nm); type: biochemical; settings: for inhibition at 20 µM: read-out: % INHIBITION OF uPA ACTIVITY 20 mM INHIBITOR; for inhibition at 100 µM: read-out: % INHIBITION OF uPA ACTIVITY 100 mM INHIBITOR
T1 construct: purchased
Excerpt: The values for the relative inhibitions contained in Table III are obtained by the following procedure.
An in vitro assay employs a commercially available synthetic chromogenic substrate, glutaryl-glycyl-arginyl-p-nitroanilide, and a commercially available human uPA. The uPA catalyzes the hydrolysis of the bond between the arginyl and p-nitroanilide moieties. The p-nitroaniline released upon hydrolysis of the substrate absorbs light at a wavelength of 405nm. The enzymatic activity is quantitated as a function of the increase in the absorbance of the solution at 405nm as measured with a spectrophotometer.
In order to obtain the data, stock solutions of the amiloride-related pyrazine derivative compounds were included in the assays, and the release of p-nitroaniline as followed by the change in absorbance at 405nm of the reaction mixture was compared to a control reaction mixture in which no amiloride-related pyrazine derivative compound was present.

[1] = molecular target: tissue-type plasminogen activator (tPA) (Homo sapiens, UniProt P00750); settings: in vitro, result in words; cited from earlier work
circulating cancer cells = settings: continuously administered orally to rats, result in words; cited from earlier work
plasma kallikrein = plasma kallikrein (Homo sapiens, UniProt P03952); settings: in vitro, result in words; cited from earlier work
plasmin = plasmin (Homo sapiens, UniProt P00747); settings: in vitro, result in words; cited from earlier work
thrombin = thrombin (Homo sapiens, UniProt P00734); settings: in vitro, result in words; cited from earlier work
Corneal Vessels = assay: rabbit corneal neovascularization model (PGE1 slow release pellet, amiloride agarose pellet implant); type: in vivo; settings: result in words
Excerpt: A series of experiments have been conducted employing a rabbit model.

Sequence of tissue-type plasminogen activator (tPA) (P00750 36-562, species assumed): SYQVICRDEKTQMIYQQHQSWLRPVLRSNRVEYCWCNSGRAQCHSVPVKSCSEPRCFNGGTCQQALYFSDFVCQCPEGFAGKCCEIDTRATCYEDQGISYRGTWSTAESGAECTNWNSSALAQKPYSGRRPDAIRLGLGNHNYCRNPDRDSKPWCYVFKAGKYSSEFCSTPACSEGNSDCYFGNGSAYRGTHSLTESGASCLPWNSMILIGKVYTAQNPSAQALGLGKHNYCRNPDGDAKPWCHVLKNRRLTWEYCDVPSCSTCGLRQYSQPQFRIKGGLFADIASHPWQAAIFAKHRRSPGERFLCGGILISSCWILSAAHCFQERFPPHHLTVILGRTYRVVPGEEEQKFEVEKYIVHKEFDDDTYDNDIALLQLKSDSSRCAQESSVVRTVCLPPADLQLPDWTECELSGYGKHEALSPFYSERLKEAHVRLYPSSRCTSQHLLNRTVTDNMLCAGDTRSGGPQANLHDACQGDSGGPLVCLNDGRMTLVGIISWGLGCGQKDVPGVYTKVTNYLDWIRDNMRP
Sequence of plasmin (P00747 97-580): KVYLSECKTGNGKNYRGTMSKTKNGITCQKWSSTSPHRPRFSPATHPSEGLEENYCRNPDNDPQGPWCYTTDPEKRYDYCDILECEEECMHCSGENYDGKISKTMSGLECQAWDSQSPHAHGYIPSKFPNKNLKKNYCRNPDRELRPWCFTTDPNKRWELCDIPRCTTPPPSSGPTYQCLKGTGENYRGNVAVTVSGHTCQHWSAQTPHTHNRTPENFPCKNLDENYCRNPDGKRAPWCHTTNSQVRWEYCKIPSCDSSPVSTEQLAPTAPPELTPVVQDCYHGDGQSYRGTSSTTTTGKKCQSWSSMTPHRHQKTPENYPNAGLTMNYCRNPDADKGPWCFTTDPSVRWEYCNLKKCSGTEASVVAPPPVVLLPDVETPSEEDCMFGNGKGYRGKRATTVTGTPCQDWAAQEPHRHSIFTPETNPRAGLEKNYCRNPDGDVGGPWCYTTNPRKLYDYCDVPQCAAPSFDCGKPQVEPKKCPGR
Sequence of plasmin (P00747 581-810): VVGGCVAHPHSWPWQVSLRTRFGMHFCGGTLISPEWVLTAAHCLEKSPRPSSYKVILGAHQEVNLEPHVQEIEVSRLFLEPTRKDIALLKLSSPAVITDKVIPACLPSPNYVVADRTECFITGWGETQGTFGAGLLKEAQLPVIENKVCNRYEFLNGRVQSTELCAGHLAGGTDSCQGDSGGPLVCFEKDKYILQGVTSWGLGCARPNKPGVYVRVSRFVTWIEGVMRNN
Sequence of plasma kallikrein (P03952 20-638, species assumed): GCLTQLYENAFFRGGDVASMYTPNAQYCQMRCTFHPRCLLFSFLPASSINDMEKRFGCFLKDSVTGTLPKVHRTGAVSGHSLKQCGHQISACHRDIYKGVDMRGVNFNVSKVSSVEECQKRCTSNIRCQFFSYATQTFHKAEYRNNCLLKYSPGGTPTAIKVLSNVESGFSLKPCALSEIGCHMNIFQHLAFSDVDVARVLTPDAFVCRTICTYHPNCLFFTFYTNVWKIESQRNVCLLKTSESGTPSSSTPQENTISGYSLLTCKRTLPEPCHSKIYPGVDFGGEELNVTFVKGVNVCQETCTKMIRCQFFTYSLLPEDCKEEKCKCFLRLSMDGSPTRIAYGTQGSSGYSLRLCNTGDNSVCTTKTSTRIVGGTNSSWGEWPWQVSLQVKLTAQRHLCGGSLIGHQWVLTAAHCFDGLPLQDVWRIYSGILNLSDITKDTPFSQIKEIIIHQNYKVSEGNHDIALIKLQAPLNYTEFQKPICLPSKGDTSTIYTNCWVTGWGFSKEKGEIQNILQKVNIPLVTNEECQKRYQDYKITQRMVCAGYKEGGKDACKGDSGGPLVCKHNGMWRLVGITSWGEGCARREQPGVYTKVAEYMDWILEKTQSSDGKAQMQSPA

Row | SMILES | inhibition at 20 µM (human uPA) [%] | inhibition at 100 µM (human uPA) [%] | other results
1 | NC(N)=NC(=O)c1nccnc1N [5,6-HA, 3-amino-N-(diaminomethylene)pyrazinecarboxamide] | 2.1 | 11.1 | 
2 | N=C(N)NC(=O)c1nc(Cl)c(N)nc1N [Amiloride, 3,5-diamino-6-chloro-N--(diaminomethylene)pyrazinecarboxamide] |  |  | inhibition of tissue-type plasminogen activator (tPA) [1]: does not inhibit; inhibition of metastasis into the lung (circulating cancer cells): inhibited the metastasis of circulating cancer cells into the lung of the rat; inhibition of plasma kallikrein (plasma kallikrein): does not inhibit; inhibition of plasmin (plasmin): does not inhibit; inhibition of thrombin (thrombin): does not inhibit; inhibition of neovascularization (Corneal Vessels; amiloride-HCl·2H₂O agarose pellets in rabbit cornea): inhibited neovascularization in a dose dependent manner; reversal of neovascularization already produced (Corneal Vessels): reverse a portion of the neovascularization that had already been produced
3 | NC(=NCc1ccccc1)NC(=O)c1nc(Cl)c(N)nc1N [BENZAMIL, 3,5-diamino-6--chloro-N-(benzylaminoaminomethylene)pyrazinecarboxamide] | 1.2 | 7.7 | 
4 | Cc1ccc(CNC(=N)NC(=O)c2nc(Cl)c(NCc3ccc(Cl)cc3)nc2N)c(C)c1 [CBDMB, 3-amino-5-(N-4-chlorobenzylamino)-6-chloro-N-[(2,4-dimethylbenzyl)aminoaminomethylene]pyrazinecarboxamide] | 41.7 | 63.4 | 
5 | NC(N)=NC(=O)c1nc(Cl)c(Cl)nc1N [Compound 5-ClA, 3--amino-5,6-dichloro-N-(diaminomethylene)pyrazinecarboxamide] | 5 | 20.7 | 
6 | NC(N)=NC(=O)c1nc(Br)cnc1N [Compound 6-Br-5-HA, 3-amino-6-bromo-N--(diaminomethylene)pyrazinecarboxamide] | 1 | 7.7 | 
7 | NC(N)=NC(=O)c1nc(Br)c(N)nc1N [Compound 6-BrA, 3,5-diamino-6-bromo-N-(diaminomethylene)pyrazinecarboxamide] | 65.6 | 69.9 | 
8 | NC(N)=NC(=O)c1nc(F)c(N)nc1N [Compound 6-FA, 3,5-diamino-6-fluoro-N-(diaminomethylene)pyrazinecarboxamide] | 7.1 | 27.9 | 
9 | NC(N)=NC(=O)c1ncc(N)nc1N [Compound 6-HA, 3,5-diamino-N-(diaminomethylene)pyrazinecarboxamide] | 15.3 | 38.2 | 
10 | NC(N)=NC(=O)c1nc(I)c(N)nc1N [Compound 6-IA, 3,5-diamino-6-iodo-N-(diaminomethylene)pyrazinecarboxamide] |  |  | % INHIBITION OF uPA ACTIVITY 20 mM INHIBITOR (human uPA; 20 mM INHIBITOR): 64.4%; % INHIBITION OF uPA ACTIVITY 100 mM INHIBITOR (human uPA; 100 mM INHIBITOR): 83.9%
11 | CN(C)c1nc(N)c(C(=O)N=C(N)N)nc1Cl [DMA, 3-amino-5-dimethylamino-6-chloro-N--(diaminomethylene)pyrazinecarboxamide] | 41.1 | 48.3 | 
12 | CCN(c1nc(N)c(C(=O)N=C(N)N)nc1Cl)C(C)C [EIPA, 3-amino-5-(N-ethyl-N--isopropylamino)-6-chloro-N-(diaminomethylene)pyrazinecarboxamide] | 28.3 | 56 | 
13 | NC(N)=NC(=O)c1nc(Cl)c(N2CCCCCC2)nc1N [HMA, 3-amino-5-(1-homopiperidinyl)-6--chloro-N-(diaminomethylene)pyrazinecarboxamide] | 51.1 | 77 | 
14 | CN(C)c1nc(N)c(C(=O)N=C(N)N)nc1I [IDMA, 3-amino-5-(N,N-dimethylamino)-6-iodo-N--(diaminomethylene)pyrazinecarboxamide] | 40.3 | 73.1 | 
15 | CN(CC(=O)N=C(N)N)c1nc(N)c(C(=O)N=C(N)N)nc1Cl [MGCMA, 3-amino-6-chloro-5-[N-methyl-N-(guanidinocarbonylmethylamino)]-N(diaminomethylene)pyrazine carboxamide] | 29.1 | 43 | 
16 | CC(C)CN(C)c1nc(N)c(C(=O)N=C(N)N)nc1Cl [MIBA, 3-amino--5-(N-methyl-N-isobutylamino)-6-chloro-N-(diaminomethylene)pyrazinecarboxamide] | 18.7 | 57.3 | 
17 | NC(N)=NNC(=O)c1nc(Cl)c(N)nc1N [MK-875, 3,5-diamino-6-chloro-N²--(diaminomethylene)pyrazinecarbonyl hydrazide] | 1.9 | 7.3 | 
18 | NC(=Nc1ccccc1)NC(=O)c1nc(Cl)c(N)nc1N [PHENAMIL, 3,5-diamino-6-chloro-N--(phenylaminoaminomethylene)pyrazinecarboxamide] | 1.7 | 5.5 | 
